{
  "source": "patent US20090156657A1",
  "about": "“ANTI-INFLAMMATORY COMPOSITION” (Ajinomoto Co., Inc., priority 2006, published 2009)",
  "key": {"[1]": {"system": "MCP-1", "assay": "MCP-1 secretion into medium of HAEC (immunoassay)", "format": "cell-based, human", "settings": "0.1-10 μM 24 h, 25 mM glucose 4 h, FIG. 4B", "method": "HAEC cells proliferated to confluence in a 96 well microplate were pre-incubated with 0.1-10 μM serotonin derivative for 24 hours, and stimulated with 25 mM glucose for 4 hours. The cell layer was washed with Hanks solution, and then anti-VCAM-1 monoclonal antibody (Becton Dickinson) was added and the cells were incubated at 37° C. for 1 hour. After washing, the cells were incubated with secondary antibody (peroxidase-labeled anti-mouse IgG goat F(ab′)2 fragment; Cappel) for 1 hour. A color development substrate (o-phenylenediamine dihydrochloride) was added and, about 30 minutes later (room temperature), the absorbance (492 nm) of each well was quantified with a microplate reader. The MCP-1 concentration of the medium was quantified with Human MCP-1 Immunoassay Kit (BioSource International)."}, "[2]": {"system": "U-937 cells / HAEC", "assay": "Migration capability of monocyte (U-937), Transwell system with HAEC", "format": "cell-based, human", "settings": "HAEC pre-incubated 5 or 10 μM 24 h, 25 mM glucose 4 h; FIG. 7", "method": "The migration capability of monocyte was measured using the Transwell system (pore size 3 μm; BD Biosciences). HAEC cultured on a transwell placed in a 24 well microplate was pre-incubated with 5 or 10 μM serotonin derivative for 24 hours, and stimulated with 25 mM glucose for 4 hours. 200 μL of U-937 cell suspension (10^6 cells/mL) was added to the transwell and the cells were incubated as-is at 37° C. for 2 hours. The number of cells migrated to the lower chamber of the transwell through the membrane was counted under a microscope (20 fields). The experiment was repeated three times, and the results are shown as an average value thereof. An experiment using fluorescence-labeled U-937 cells was also performed. BCECF-AM-labeled U-937 cells were plated in the upper chamber of the transwell and incubated at 37° C. for 2 hours. The cells migrated to the lower chamber through the membrane were collected in 1 mL of PBS buffer and treated with 1% Triton X for 2 hours. The fluorescence derived from the migrated cells was quantified (Ex. 503 nm, Em. 525 nm) using a fluorescence plate reader (Bio-Rad, Fluoromark)."}, "[3]": {"system": "IBD model mice (IL-10 deficient cell-transplanted SCID mice)", "assay": "Inflammatory bowel disease (IBD) model mouse: large intestine and blood cell counts", "format": "in vivo", "settings": "diet 3 weeks, vs Control group", "excerpt": "Immunopharmacol., 5, 993-1006 (2005)).\n(§1) 4 days before IL-10 deficient cell transplantation, total 40 SCID mice (7-week-old, were divided into the following 4 groups 1) to 4) (10 mice in each group) and acclimation to a control diet was simultaneously started. Immediately after cell transfer, the feed was changed to the test diet shown in Table 4, and free ingestion was allowed for 3 weeks. The safflower seed extract powder was the same as that in Example 8, and contained 50 wt % of γ-cyclodextrin. N-Feruloylserotonin (FS) was synthesized according to the method of Experimental Example 1. During the test diet ingestion period, the body weight, the amount of ingested feed and the amount of water drunk were measured 3 times a week to monitor the onset of the disease.\n(§2) 1) Normal group (normal SCID mice×control diet) 2) Control group (IL-10 deficient cell-transplanted SCID mice×control diet) 3) SSE group (IL-10 deficient cell-transplanted SCID mice×SSE diet*) 4) FS group (IL-10 deficient cell-transplanted SCID mice×FS diet**) *containing FS and p-coumaroyl serotonin (CS) at 0.10 and 0.13 wt %, respectively (based on aglycone) (total serotonin derivative content=[…]) **containing 0.4 wt % of FS aglycone\nAfter the completion of the test diet ingestion period, blood samples were collected under anesthesia, and the length of the isolated large intestine (appendix—anus) and the weight thereof (after washing the contents) were measured. Using the obtained data, t-test was first conducted between the Normal group and the Control group and, after confirmation of the effectiveness of the test, variance analyses were performed between the Control group and each of SSE and FS groups, and the effect of the test substance was compared by Dunnett-test."}, "[4]": {"assay": "IBD model mouse: body weight, ingested feed, water drunk", "format": "in vivo", "settings": "IBD model mice", "excerpt": "as §1, §2"}, "[5]": {"system": "IL-1β mRNA", "assay": "IBD model mouse: IL-1β mRNA in large intestine tissue (realtime PCR)", "format": "in vivo", "settings": "IBD model mice, vs Control group, GAPDH internal standard; FIG. 15", "excerpt": "(§3) At the end of the test described in Example 10, the large intestine (caecum—anus) was cut into about 1 cm pieces from the center to the anus side to give 3 sections in total. One of them was fixed with 10% formalin solution and two were frozen in liquid nitrogen. The large intestine fixed with formalin was embedded in paraffin, and sliced to give transversely sectioned specimens. The specimens were stained by a PAS (Periodic acid Schiff) staining method, and histopathological images were observed. On the other hand, total RNA was extracted from the frozen large intestine tissue with ISOGEN (NIPPON GENE CO., LTD.) Total RNA (2 μg) was subjected to a reverse transcription reaction using a SYBR ExScript™ RT-PCR kit (TaKaRa) and, using this as a template, quantitative realtime PCR was performed using IL-1β, TNF-α and GAPDH. The primers used for the analysis were as follows.\n(§4) Template DNA (2 μl), SYBR Premix Ex Taq™ (TaKaRa, 10 μl), ROX Reference Dye (0.4 μl), 100 μM forward primer (0.04 μl), 100 μM reverse primer (0.04 μl) and sterile water (7.52 μl) were mixed on ice and, using Applied Biosystems 7900HT Fast realtime PCR system, the mixture was heated at 95° C. for 10 seconds, followed by 40 cycles of 95° C., 5 seconds and 60° C., 34 seconds, whereby the DNA was amplified. Using GAPDH as the internal standard, IL-1β and TNF-α expression levels were evaluated."}, "[6]": {"system": "TNF-α mRNA", "assay": "IBD model mouse: TNF-α mRNA in large intestine tissue (realtime PCR)", "format": "in vivo", "settings": "IBD model mice, vs Control group, GAPDH internal standard; FIG. 15", "excerpt": "as §3, §4"}},
  "data": [
    {"smiles": "COc1cc(/C=C/C(=O)NCCc2c[nH]c3ccc(O)cc23)ccc1O", "note": "[FS, N-feruloyl serotonin]", "values": [
      {"measurement": "MCP-1 secretion into the medium", "setting": "[1]", "value": "suppressed the induction of their expressions in a dose-dependent manner"},
      {"measurement": "number of U-937 cells migrated into subendothelium space (cell count)", "setting": "[2]", "value": "significantly decreased"},
      {"measurement": "large intestine weight", "setting": "[3]; FIG. 11B", "value": "significantly lower values"},
      {"measurement": "large intestine weight per unit intestine length", "setting": "[3]; FIG. 11C", "value": "significantly lower values"},
      {"measurement": "platelet count", "setting": "[3]; FIG. 12B", "value": "significantly lower"},
      {"measurement": "leukocyte count", "setting": "[3]; not statistically significant, FIG. 12A", "value": "tendency toward lower values"},
      {"measurement": "neutrophil count", "setting": "[3]; not statistically significant, FIG. 12C", "value": "tendency toward lower values"},
      {"measurement": "monocyte count", "setting": "[3]; not statistically significant, FIG. 12D", "value": "tendency toward lower values"},
      {"measurement": "body weight change rate (day 0 = 100)", "setting": "[4]; day 21 vs day 0, mean ± SEM", "value": "112.5 ± 1.2"},
      {"measurement": "body weight, completion of test diet ingestion (day 21)", "setting": "[4]; mean ± SEM", "value": "20.6 ± 0.4", "unit": "g"},
      {"measurement": "body weight, start of test diet ingestion (day 0)", "setting": "[4]; mean ± SEM, baseline", "value": "18.3 ± 0.3", "unit": "g"},
      {"measurement": "mRNA expression level of IL-1β in large intestine tissue", "setting": "[5]", "value": "significant decrease"},
      {"measurement": "mRNA expression level of TNF-α in large intestine tissue", "setting": "[6]", "value": "tendency toward decrease"}
    ]}
  ]
}
